Reference: patent publication US20230013823A1, “INHIBITORS OF HUMAN IMMUNODEFICIENCY VIRUS REPLICATION” (VIV HEALTHCARE UK (No. 5) LIMITED, priority 2019, published 2023)

What was measured:
[1] = Compound cytotoxicity, XTT-based colorimetric assay; type: cell-based; conditions: human; uninfected MT2 cells, day 4, XTT
Method: Compound cytotoxicity and the corresponding CC50 values were determined using the same protocol as described in the antiviral assay except that uninfected cells were used. Cytotoxicity was assessed on day 4 in uninfected MT2 cells by using an XTT (2,3-bis[2-Methoxy-4-nitro-5-sulfophenyl]-2H-tetrazolium-5-carboxyanilide inner salt)-based colorimetric assay (Sigma-Aldrich, St Louis, Mo.).

[2] = tested on: recombinant NL4-3 virus (Renilla luciferase in nef); assay: HIV cell culture assay (antiviral activity, luciferase readout in MT-2 cells); type: cell-based; conditions: Renilla, NL43
Method: HIV cell culture assay—MT=2 cells, 293T cells and the proviral DNA clone of NL4-3 virus were obtained from the NIH AIDS Research and Reference Reagent Program. MT=2 cells were propagated in RPMI 1640 media supplemented with 10% heat inactivated fetal bovine serum (FBS), […] penicillin G and up to 100 units/mL streptomycin. The 293T cells were propagated in DMEM media supplemented with 10% heat inactivated FBS, […] penicillin G and […] streptomycin. A recombinant NL4-3 proviral clone, in which a section of the nef gene was replaced with the Renilla luciferase gene, was used to make the reference virus used in these studies. The recombinant virus was prepared through transfection of the recombinant NL4-3 proviral clone into 293T cells using Transit-293 Transfection Reagent from Mirus Bio LLC (Madison, Wis.). Supernatent was harvested after 2-3 days and the amount of virus present was titered in MT=2 cells using luciferase enzyme activity as a marker by measuring luciferase enzyme activity. Luciferase was quantitated using the EnduRen Live Cell Substrate from Promega (Madison, Wis.). Antiviral activities of compounds toward the recombinant virus were quantified by measuring luciferase activity in MT=2 cells infected for 4-5 days with the recombinant virus in the presence of serial dilutions of the compound.
The 50% effective concentration (EC50) was calculated by using the exponential form of the median effect equation where (Fa)=1/[1+(ED50/drug conc.)m] (Johnson V A, Byington R T. Infectivity Assay. In Techniques in HIV Research. ed. Aldovini A, Walker B D. 71-76. New York: Stockton Press. 1990). The 50% inhibitory concentration (EC50) was calculated by using the exponential form of the median effect equation where percent inhibition=1/[1+(EC50/drug concentration)m], where m is a parameter that reflects the slope of the concentration-response curve.

Structure (SMILES)	CC50 at 4 days [1]	EC50 [2]
COCc1ccccc1-c1ccc2c(=O)n(-c3ccc(Cl)c4c(NS(C)(=O)=O)nn(C)c34)c([C@H](Cc3cc(F)cc(F)c3)NC(=O)Cn3nc(C(F)F)c4c3C(F)(F)[C@@H]3C[C@H]43)nc2c1 (atropisomer, axis not shown; (P)) [Example 19, N—((S)-1-((3P)-3-(4-chloro-1-methyl-3-(methylsulfonamido)-1H-indazol-7-yl)-7-(2-(methoxymethyl)phenyl)-4-oxo-3,4-dihydroquinazolin-2-yl)-2-(3,5-difluorophenyl)ethyl)-2-((3bS,4aR)-3-(difluoromethyl)-5,5-difluoro-3b,4,4a,5-tetrahydro-1H-cyclopropa[3,4]cyclopenta[1,2-c]pyrazol-1-yl)acetamide]	> 500000 pM	160 pM
Cc1cc(C#N)nc(-c2ccc3c(=O)n(-c4ccc(Cl)c5c(NS(C)(=O)=O)nn(C)c45)c([C@H](Cc4cc(F)cc(F)c4)NC(=O)Cn4nc(C(F)F)c5c4C(F)(F)[C@@H]4C[C@H]54)nc3c2)n1 (atropisomer, axis not shown; (P)) [Example 12, N—((S)-1-((3P)-3-(4-chloro-1-methyl-3-(methylsulfonamido)-1H-indazol-7-yl)-7-(4-cyano-6-methylpyrimidin-2-yl)-4-oxo-3,4-dihydroquinazolin-2-yl)-2-(3,5-difluorophenyl)ethyl)-2-((3bS,4aR)-3-(difluoromethyl)-5,5-difluoro-3b,4,4a,5-tetrahydro-1H-cyclopropa[3,4]cyclopenta[1,2-c]pyrazol-1-yl)acetamide]	> 500000 pM	87 pM
Cn1nc(NS(C)(=O)=O)c2c(Cl)ccc(-n3c([C@H](Cc4cc(F)cc(F)c4)NC(=O)Cn4nc(C(F)F)c5c4C(F)(F)[C@@H]4C[C@H]54)nc4cc(-c5cc(C(F)(F)F)ncn5)ccc4c3=O)c21 (atropisomer, axis not shown; (P)) [Example 25, N—((S)-1-((3P)-3-(4-chloro-1-methyl-3-(methylsulfonamido)-1H-indazol-7-yl)-4-oxo-7-(6-(trifluoromethyl)pyrimidin-4-yl)-3,4-dihydroquinazolin-2-yl)-2-(3,5-difluorophenyl)ethyl)-2-((3bS,4aR)-3-(difluoromethyl)-5,5-difluoro-3b,4,4a,5-tetrahydro-1H-cyclopropa[3,4]cyclopenta[1,2-c]pyrazol-1-yl)acetamide]	> 100000 pM	83 pM
Cn1nc(NS(C)(=O)=O)c2c(Cl)ccc(-n3c([C@H](Cc4cc(F)cc(F)c4)NC(=O)Cn4nc(C(F)F)c5c4C(F)(F)[C@@H]4C[C@H]54)nc4cc(-c5cc(C(C)(F)F)ccn5)ccc4c3=O)c21 (atropisomer, axis not shown; (P)) [Example 37, N—((S)-1-((3P)-3-(4-chloro-1-methyl-3-(methylsulfonamido)-1H-indazol-7-yl)-7-(4-(1,1-difluoroethyl)pyridin-2-yl)-4-oxo-3,4-dihydroquinazolin-2-yl)-2-(3,5-difluorophenyl)ethyl)-2-((3bS,4aR)-3-(difluoromethyl)-5,5-difluoro-3b,4,4a,5-tetrahydro-1H-cyclopropa[3,4]cyclopenta[1,2-c]pyrazol-1-yl)acetamide]	> 100000 pM	330 pM
Cn1nc(NS(C)(=O)=O)c2c(Cl)ccc(-n3c([C@H](Cc4cc(F)cc(F)c4)NC(=O)Cn4nc(C(F)F)c5c4C(F)(F)[C@@H]4C[C@H]54)nc4cc(-c5ncc(Cl)cc5F)ccc4c3=O)c21 (atropisomer, axis not shown; (P)) [Example 8, N—((S)-1-((3P)-3-(4-chloro-1-methyl-3-(methylsulfonamido)-1H-indazol-7-yl)-7-(5-chloro-3-fluoropyridin-2-yl)-4-oxo-3,4-dihydroquinazolin-2-yl)-2-(3,5-difluorophenyl)ethyl)-2-((3bS,4aR)-3-(difluoromethyl)-5,5-difluoro-3b,4,4a,5-tetrahydro-1H-cyclopropa[3,4]cyclopenta[1,2-c]pyrazol-1-yl)acetamide]	> 500000 pM	300 pM
Cc1nc2cc(-c3ccc4c(=O)n(-c5ccc(Cl)c6c(NS(C)(=O)=O)nn(C)c56)c([C@H](Cc5cc(F)cc(F)c5)NC(=O)Cn5nc(C(F)F)c6c5C(F)(F)[C@@H]5C[C@H]65)nc4c3)ccc2s1 (atropisomer, axis not shown; (P)) [Example 36, N—((S)-1-((3P)-3-(4-chloro-1-methyl-3-(methylsulfonamido)-1H-indazol-7-yl)-7-(2-methylbenzo[d]thiazol-5-yl)-4-oxo-3,4-dihydroquinazolin-2-yl)-2-(3,5-difluorophenyl)ethyl)-2-((3bS,4aR)-3-(difluoromethyl)-5,5-difluoro-3b,4,4a,5-tetrahydro-1H-cyclopropa[3,4]cyclopenta[1,2-c]pyrazol-1-yl)acetamide]	> 100000 pM	1800 pM
Cn1nc(NS(C)(=O)=O)c2c(Cl)ccc(-n3c([C@H](Cc4cc(F)cc(F)c4)NC(=O)Cn4nc(C(F)F)c5c4C(F)(F)[C@@H]4C[C@H]54)nc4cc(-c5ccc6ocnc6c5)ccc4c3=O)c21 (atropisomer, axis not shown; (P)) [Example 46, N—((S)-1-(7-(benzo[d]oxazol-5-yl)-(3P)-3-(4-chloro-1-methyl-3-(methylsulfonamido)-1H-indazol-7-yl)-4-oxo-3,4-dihydroquinazolin-2-yl)-2-(3,5-difluorophenyl)ethyl)-2-((3bS,4aR)-3-(difluoromethyl)-5,5-difluoro-3b,4,4a,5-tetrahydro-1H-cyclopropa[3,4]cyclopenta[1,2-c]pyrazol-1-yl)acetamide]	> 100000 pM	340 pM
COc1nc(C)cc(-c2ccc3c(=O)n(-c4ccc(Cl)c5c(NS(C)(=O)=O)nn(C)c45)c([C@H](Cc4cc(F)cc(F)c4)NC(=O)Cn4nc(C(F)F)c5c4C(F)(F)[C@@H]4C[C@H]54)nc3c2)n1 (atropisomer, axis not shown; (P)) [Example 16, N—((S)-1-((3P)-3-(4-chloro-1-methyl-3-(methylsulfonamido)-1H-indazol-7-yl)-7-(2-methoxy-6-methylpyrimidin-4-yl)-4-oxo-3,4-dihydroquinazolin-2-yl)-2-(3,5-difluorophenyl)ethyl)-2-((3bS,4aR)-3-(difluoromethyl)-5,5-difluoro-3b,4,4a,5-tetrahydro-1H-cyclopropa[3,4]cyclopenta[1,2-c]pyrazol-1-yl)acetamide]	> 500000 pM	110 pM
Cn1nc(NS(C)(=O)=O)c2c(Cl)ccc(-n3c([C@H](Cc4cc(F)cc(F)c4)NC(=O)Cn4nc(C(F)F)c5c4C(F)(F)[C@@H]4C[C@H]54)nc4cc(-c5cncc(C(F)(F)F)n5)ccc4c3=O)c21 (atropisomer, axis not shown; (P)) [Example 22, N—((S)-1-((3P)-3-(4-chloro-1-methyl-3-(methylsulfonamido)-1H-indazol-7-yl)-4-oxo-7-(6-(trifluoromethyl)pyrazin-2-yl)-3,4-dihydroquinazolin-2-yl)-2-(3,5-difluorophenyl)ethyl)-2-((3bS,4aR)-3-(difluoromethyl)-5,5-difluoro-3b,4,4a,5-tetrahydro-1H-cyclopropa[3,4]cyclopenta[1,2-c]pyrazol-1-yl)acetamide]	> 100000 pM	60 pM
Cc1cc(-c2ccc3c(=O)n(-c4ccc(Cl)c5c(NS(C)(=O)=O)nn(C)c45)c([C@H](Cc4cc(F)cc(F)c4)NC(=O)Cn4nc(C(F)F)c5c4C(F)(F)[C@@H]4C[C@H]54)nc3c2)nn1CC(F)(F)C(F)(F)F (atropisomer, axis not shown; (P)) [Example 60, N—((S)-1-((3P)-3-(4-chloro-1-methyl-3-(methylsulfonamido)-1H-indazol-7-yl)-7-(5-methyl-1-(2,2,3,3,3-pentafluoropropyl)-1H-pyrazol-3-yl)-4-oxo-3,4-dihydroquinazolin-2-yl)-2-(3,5-difluorophenyl)ethyl)-2-((3bS,4aR)-3-(difluoromethyl)-5,5-difluoro-3b,4,4a,5-tetrahydro-1H-cyclopropa[3,4]cyclopenta[1,2-c]pyrazol-1-yl)acetamide]	> 100000 pM	210 pM
Cn1nc(NS(C)(=O)=O)c2c(Cl)ccc(-n3c([C@H](Cc4cc(F)cc(F)c4)NC(=O)Cn4ccc(C5CC5)n4)nc4cc(-c5ccn(CC(C)(F)F)n5)ccc4c3=O)c21 (atropisomer, axis not shown; (P)) [Example 61, (S)—N-(1-((3P)-3-(4-chloro-1-methyl-3-(methylsulfonamido)-1H-indazol-7-yl)-7-(1-(2,2-difluoropropyl)-1H-pyrazol-3-yl)-4-oxo-3,4-dihydroquinazolin-2-yl)-2-(3,5-difluorophenyl)ethyl)-2-(3-cyclopropyl-1H-pyrazol-1-yl)acetamide]	> 100000 pM	57 pM
